From ChEMBL document CHEMBL1201862, “PubChem BioAssay data set” (2004)
Counter-ions that a name gives are not always drawn.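 Exposure lasted 48 hours, with cells grown in 96-well plates and compounds tested at five concentrations. Here, GI50 denotes the concentration required for 50% inhibition of growth.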 Active and inactive are the calls of the source. Cut-off read from the data, not from the text of the source: active = GI50 up to about 1.1 µM and inactive = higher.

Assays:
Assay in all cases: NCI anticancer screen, dose series, 48 h
SNB-19 = test system: SNB-19
DLD-1 = test system: DLD-1
HOP-18 = test system: HOP-18
OVCAR-5 = test system: OVCAR-5
T47D = test system: T47D
Hs-578T = test system: Hs-578T
DMS-273 = test system: DMS-273
K562 = test system: K562
SK-MEL-5 = test system: SK-MEL-5
HOP-62 = test system: HOP-62
NCI-H522 = test system: NCI-H522
OVCAR-8 = test system: OVCAR-8
KM12 = test system: KM12
HL-60 = test system: HL-60
RXF 393 = test system: RXF 393
COLO 205 = test system: COLO 205
HCT-15 = test system: HCT-15
HCT-116 = test system: HCT-116
SNB-75 = test system: SNB-75
UO-31 = test system: UO-31
SK-MEL-28 = test system: SK-MEL-28
SF-268 = test system: SF-268
ACHN = test system: ACHN
CCRF-CEM = test system: CCRF-CEM
DMS-114 = test system: DMS-114
M14 = test system: M14
SK-OV-3 = test system: SK-OV-3
SF-539 = test system: SF-539
DU-145 = test system: DU-145
NCI-H226 = test system: NCI-H226
OVCAR-3 = test system: OVCAR-3
UACC-257 = test system: UACC-257
OVCAR-4 = test system: OVCAR-4
HOP-92 = test system: HOP-92
EKVX = test system: EKVX
M19-MEL = test system: M19-MEL
U-251 = test system: U-251
A549 = test system: A549
HT-29 = test system: HT-29
NCI/ADR-RES = test system: NCI/ADR-RES
Malme-3M = test system: Malme-3M
XF498 = test system: XF498
BT-549 = test system: BT-549
HCC 2998 = test system: HCC 2998
MDA-MB-231 = test system: MDA-MB-231
MCF7 = test system: MCF7
NCI-H460 = test system: NCI-H460
MOLT-4 = test system: MOLT-4
SF-295 = test system: SF-295
RPMI-8226 = test system: RPMI-8226
IGROV-1 = test system: IGROV-1
SK-MEL-2 = test system: SK-MEL-2
LXFL 529 = test system: LXFL 529
KM-20L2 = test system: KM-20L2
SN12C = test system: SN12C
CAKI-1 = test system: CAKI-1
UACC-62 = test system: UACC-62
NCI-H23 = test system: NCI-H23
786-0 = test system: 786-0
SR = test system: SR
A498 = test system: A498
LOX IMVI = test system: LOX IMVI
SNB-78 = test system: SNB-78
PC-3 = test system: PC-3
TK-10 = test system: TK-10
MDA-MB-435 = test system: MDA-MB-435
SW-620 = test system: SW-620

CC(C)NC(=O)OCc1c(COC(=O)NC(C)C)c(-c2ccc(Cl)c(Cl)c2)n2c1CCC2
GI50 (SNB-19): 56.5 µM (inactive)
GI50 (DLD-1): > 51.5 µM (inactive)
GI50 (HOP-18): > 61.2 µM (inactive)
GI50 (OVCAR-5): 44.9 µM (inactive)
GI50 (T47D): 50.5 µM (inactive)
GI50 (Hs-578T): > 97.5 µM (inactive)
GI50 (DMS-273): > 49.2 µM (inactive)
GI50 (K562): 46.1 µM (inactive)
GI50 (SK-MEL-5): 24.9 µM (inactive)
GI50 (HOP-62): 38.5 µM (inactive)
GI50 (NCI-H522): > 62.4 µM (inactive)
GI50 (OVCAR-8): 46.6 µM (inactive)
GI50 (KM12): 62.5 µM (inactive)
GI50 (HL-60): 26.6 µM (inactive)
GI50 (RXF 393): 31.3 µM (inactive)
GI50 (COLO 205): 52.8 µM (inactive)
GI50 (HCT-15): 52.7 µM
GI50 (HCT-116): 51.8 µM (inactive)
GI50 (SNB-75): 39.4 µM (inactive)
GI50 (UO-31): 45 µM (inactive)
GI50 (SK-MEL-28): 65 µM (inactive)
GI50 (SF-268): 43.5 µM (inactive)
GI50 (ACHN): 18.7 µM (inactive)
GI50 (CCRF-CEM): 26.5 µM (inactive)
GI50 (DMS-114): 33.7 µM (inactive)
GI50 (M14): 35.9 µM (inactive)
GI50 (SK-OV-3): 61.4 µM (inactive)
GI50 (SF-539): 43.5 µM (inactive)
GI50 (DU-145): > 100 µM (inactive)
GI50 (NCI-H226): 28.1 µM (inactive)
GI50 (OVCAR-3): 54 µM (inactive)
GI50 (UACC-257): 49.7 µM (inactive)
GI50 (OVCAR-4): > 66.5 µM (inactive)
GI50 (HOP-92): 29.4 µM (inactive)
GI50 (EKVX): 57.1 µM (inactive)
GI50 (M19-MEL): 33.7 µM (inactive)
GI50 (U-251): 51.3 µM (inactive)
GI50 (A549): 21.1 µM (inactive)
GI50 (HT-29): 40.9 µM (inactive)
GI50 (NCI/ADR-RES): > 89.7 µM (inactive)
GI50 (Malme-3M): 47.1 µM (inactive)
GI50 (XF498): 45.7 µM (inactive)
GI50 (BT-549): > 100 µM (inactive)
GI50 (HCC 2998): 43.6 µM (inactive)
GI50 (MDA-MB-231): 84.7 µM (inactive)
GI50 (MCF7): > 100 µM (inactive)
GI50 (NCI-H460): 36.6 µM (inactive)
GI50 (MOLT-4): 13.7 µM (inactive)
GI50 (SF-295): 48.1 µM (inactive)
GI50 (RPMI-8226): 17.9 µM (inactive)
GI50 (IGROV-1): 50 µM (inactive)
GI50 (SK-MEL-2): 44.2 µM (inactive)
GI50 (LXFL 529): 3.6 µM (inactive)
GI50 (KM-20L2): 35.1 µM (inactive)
GI50 (SN12C): 49.4 µM (inactive)
GI50 (CAKI-1): 20.9 µM (inactive)
GI50 (UACC-62): 39.8 µM (inactive)
GI50 (NCI-H23): 46.9 µM (inactive)
GI50 (786-0): 20.7 µM (inactive)
GI50 (SR): 6.37 µM (inactive)
GI50 (A498): 34 µM (inactive)
GI50 (LOX IMVI): 46.8 µM (inactive)
GI50 (SNB-78): 21.2 µM (inactive)
GI50 (PC-3): > 80.7 µM (inactive)
GI50 (TK-10): 41.7 µM (inactive)
GI50 (MDA-MB-435): > 100 µM (inactive)
GI50 (SW-620): 21 µM (inactive)

CC[C@]1(O)C[C@H]2CN(CCc3c([nH]c4ccccc34)[C@@](C(=O)OC)(c3cc4c(cc3OC)N(C=O)[C@H]3[C@@](O)(C(=O)OC)[C@H](OC(C)=O)[C@]5(CC)C=CCN6CC[C@]43[C@@H]65)C2)C1 [VINCRISTINE SULFATE]
GI50 (SNB-19): 0.131 µM (active)
GI50 (DLD-1): 0.106 µM (active)
GI50 (HOP-18): 20.8 µM (inactive)
GI50 (OVCAR-5): 22.2 µM (inactive)
GI50 (T47D): 175 µM (inactive)
GI50 (DMS-273): 0.1 µM (active)
GI50 (HOP-62): 0.225 µM (active)
GI50 (NCI-H522): 0.119 µM (active)
GI50 (RXF 393): 0.161 µM (active)
GI50 (COLO 205): 0.133 µM (active)
GI50 (HCT-15): 0.137 µM
GI50 (HCT-116): 0.132 µM (active)
GI50 (SNB-75): 0.43 µM (active)
GI50 (UO-31): 2.1 µM (inactive)
GI50 (SK-MEL-28): 1.31 µM (inactive)
GI50 (SF-268): 0.172 µM (active)
GI50 (ACHN): 0.176 µM (active)
GI50 (CCRF-CEM): 0.131 µM (active)
GI50 (DMS-114): 0.121 µM (active)
GI50 (SK-OV-3): 0.288 µM (active)
GI50 (OVCAR-3): 0.125 µM (active)
GI50 (HOP-92): 0.137 µM (active)
GI50 (EKVX): 2.36 µM (inactive)
GI50 (M19-MEL): 0.142 µM (active)
GI50 (U-251): 0.132 µM (active)
GI50 (Malme-3M): 0.333 µM (active)
GI50 (XF498): 0.135 µM (active)
GI50 (NCI-H460): 0.105 µM (active)
GI50 (SK-MEL-2): 0.132 µM (active)
GI50 (LXFL 529): 0.1 µM (active)
GI50 (KM-20L2): 0.106 µM (active)
GI50 (CAKI-1): 0.14 µM (active)
GI50 (NCI-H23): 0.112 µM (active)
GI50 (SR): 0.1 µM (active)
GI50 (A498): 0.126 µM (active)
GI50 (SNB-78): 0.163 µM (active)
